Article PMC7054359, “Effects of route of administration on oxytocin-induced changes in regional cerebral blood flow in humans” (Nature Communications, 2020)
Where “and” joins values, the source holds several entries; their conditions need not be identical. Equal entries are not always repeated. Where two headings read alike, the source gives them in different places.

Legend:
[1] = intraperitoneal administration, cited from earlier work
Text: With respect to changes in rCBF induced by the intravenous administration of OT, there may be three possible mediating mechanisms. First, it is possible that peripheral effects of OT on vegetative territories, such as the heart, may be an indirect source of changes in areas of the interoceptive/allostasis network in the human brain, where the dorsal amygdala and the pregenual anterior cingulate cortex assume the role of visceromotor hubs[43]. […] The delivery to the paranasal sinuses seems to be increased about 3-5x by using the aerosol pulsation deposition method implemented by the PARI sinus nebuliser(6, 7). The paranasal sinus mucosa is also innervated by the trigeminal nerve which is one of the pathways propo ...

[2] = Plasma OT pharmacokinetics after intravenous, nasal spray or nebulizer administration (radioimmunoassay after extraction); type: in vivo, humans; design: Plasma OT Concentration, individual participants: unit not given here; conditions: for Plasma OT Concentration, individual participants: Condition IV (10 IU), source data of Fig. 6a; for Plasma OT Concentration, individual participants / Bioavailability, individual participants: unit not given; for Bioavailability, individual participants: source data of Fig. 6c, one row per participant; for AUC of plasmatic oxytocin post-dosing / Cmax: 40 IU OT; for AUC of plasmatic oxytocin post-dosing: trapezoidal rule, 120 min post-dosing; for Cmax: healthy men, plasma, radioimmunoassay, read-out: Cmax, maximum plasmatic concentration achieved after dosing
Text: For the intranasal administrations, participants self-administered a nominal dose of 40 IU OT (Syntocinon; 40IU/ml; Novartis, Basel, Switzerland), one of the highest clinically applicable doses. We have shown that 40IU delivered with a standard nasal spray induce robust rCBF changes in the human brain in a between-subjects, single-blind design study. For the intranasal administration, we used specially manufactured placebo that contained the same excipients as Syntocinon except for oxytocin.
The aerosol droplet size of three Syntocinon spray bottles was assessed by laser diffraction (Malvern Spraytec, Malvern Panalytical, Worcestershire, UK). The mass median diameter (MMD) of the aerosol plume was 37 ± 2.5 µm.
PARI SINUS nebulizer: Participants self-administered 40IU OT (Syntocinon) or placebo, by operating the SINUS nebulizer for 3 min in each nostril (6 min in total), according to instructions. The correct application of the device was confirmed by determining gravimetrically the administered volume. Participants were instructed to breathe using only their mouth and to keep a constant breath rate with their soft palate closed, to minimize delivery to the lungs. The PARI SINUS (PARI GmbH, Starnberg, Germany) is designed to deliver aerosolised drugs to the sinus cavities by ventilating the sinuses via pressure fluctuations. The SINUS nebulizer produces an aerosol with 3 µm MMD, which is superimposed with a 44 Hz pulsation frequency. […] The efficacy of this system was first shown in a scintigraphy study by ref. [76]. Since the entrance of the sinuses is located near the olfactory region, an improved delivery to the olfactory region was expected compared to nasal sprays. Other studies[32] have shown up to 9.0% (±1.9%) of the total administered dose to be delivered to the olfactory region, 15.7 (±2.4%) to the upper nose.
For the intravenous administration, we delivered 10IU OT (Syntocinon injection formulation, 10IU/ml, Alliance, UK) or saline via slow infusion over 10 min (1IU/min). A 50-ml syringe was loaded with either 32 ml of 0.9% sodium chloride (placebo) or 30 ml of 0.9% sodium chloride with […] of Syntocinon (10IU/ml). […] The ECG was monitored during the intravenous administration interval. We selected the intravenous dose and rate of administration to assure high plasmatic concentrations of OT throughout the observation period while restricting cardiovascular effects to tolerable and safe limits. A rate of 1IU per minute is typically used in caesarean sections and is considered to have minimised side effects[77],[78].
We collected plasma samples at baseline and at five timepoints post-dosing (as detailed in Fig. 1) to measure changes in the concentration of OT. Plasmatic OT was assayed by radioimmunoassay (RIAgnosis, Munich, Germany) after extraction, currently the gold-standard technique for OT quantifications in peripheral fluids. The detection limit of this assay is in the 0.5 pg/sample range. Cross-reactivity with vasopressin, ring moieties and terminal tripeptides of both OT and vasopressin and a wide variety of peptides comprising […] (alpha-melanocyte-stimulating hormone) up to 41 (corticotrophin-releasing factor) amino acids are <0.7% throughout. The intra- and inter-assay variabilities are <10%[80].
Pharmacokinetic analysis: From the plasmatic concentrations of OT at several timepoints after dosing we calculated the area under the curve (AUC) using the trapezoidal rule for each subject and session. AUC provides a single metric that reflects variations in plasma levels of OT concentration following OT/placebo administration for each session and each participant. […] Mean AUCs were compared between the three methods of administration with a repeated measures one-way analysis of variance, using the Greenhouse-Geisser correction against violations of sphericity. Post-hoc comparisons between methods were implemented using Tukey’s correction for multiple comparisons. […]

[3] = cited from earlier work
Text: Human studies almost exclusively target the central OT system by administering synthetic OT using nasal sprays, despite a lack of understanding of the mechanisms underpinning its pharmacodynamic effects. […] The intranasal administration of OT has been favoured under the assumption that once in the nasal cavity, OT can reach the brain directly, bypassing the BBB[13]. […] The first mechanism po ...

[4] = intravenous infusion of labelled synthetic OT; cited from earlier work
Text: With respect to changes in rCBF induced by the intravenous administration of OT, there may be three possible mediating mechanisms. First, it is possible that peripheral effects of OT on vegetative territories, such as the heart, may be an indirect source of changes in areas of the interoceptive/allostasis network in the human brain, where the dorsal amygdala and the pregenual anterior cingulate cortex assume the role of visceromotor hubs[43].

Plasma OT Concentration, individual participants ([2]; Sample 2): 65.12 and 59.67 and 47.11 | Plasma OT Concentration, individual participants ([2]; Sample 3): 68.1 | Plasma OT Concentration, individual participants ([2]; Sample 4): 30.93 and 53.9 | Plasma OT Concentration, individual participants ([2]; Sample 6): 12.86 and 20.71 | Plasma OT Concentration, individual participants ([2]; Sample 7): 7.3 and 7.23 and 4.61 | Plasma OT Concentration, individual participants ([2]; Sample 8): 3.77 | Time of peak plasma concentration ([2]; Intravenous, 10 IU): at the end of dosing | Time of peak plasma concentration ([2]; Nasal spray, 40 IU): at the end of dosing | AUC of plasmatic oxytocin post-dosing ([2]; PARI SINUS nebulizer, mean (1 SEM)): 15.30 (2.14) pg.ml-1.h-1 | AUC of plasmatic oxytocin post-dosing ([2]; Standard nasal spray, mean (1 SEM)): 15.70 (1.97) pg.ml-1.h-1 | Cmax ([2]; human, in vivo, inhaled or intranasal, 40 IU, PARI SINUS nebulizer, mean (1 SEM)): 0.0163 ng/mL | Cmax ([2]; human, in vivo, inhaled or intranasal, 40 IU, Standard nasal spray, mean (1 SEM)): 0.0158 ng/mL | Tmax ([2]; human, in vivo, inhaled or intranasal, Nebulizer, 40 IU, post-dosing, read-out: Time of peak plasma concentration (converted)): ~15 min | bioavailability ([2]; human, in vivo, inhaled or intranasal, Standard nasal spray 40 IU, dose-corrected AUC intranasal / dose-corrected AUC intravenous, mean (1 SEM), read-out: Absolute bioavailability of oxytocin absorbed to the plasma): 10.6%
Structure (SMILES): CC[C@H](C)[C@@H]1NC(=O)[C@H](Cc2ccc(O)cc2)NC(=O)[C@@H](N)CSSC[C@@H](C(=O)N2CCC[C@H]2C(=O)N[C@@H](CC(C)C)C(=O)NCC(N)=O)NC(=O)[C@H](CC(N)=O)NC(=O)[C@H](CCC(N)=O)NC1=O [OT, oxytocin]
OT concentration in brain extracellular fluid ([1]; wild-type and OT knockout mice): increased the concentration of OT in the extracellular fluid in the amygdala and dorsal hippocampus | Time the concentration in amygdala extracellular fluid remains elevated ([1]; ref Smith et al. 2019): about 1 h | Time to reach the extracellular fluid in the amygdala ([1]; ref Smith et al. 2019): ≤ 30 min | Bioavailability, individual participants ([2]; Nebuliser 40 IU): 31.90 and 10.30 and 3.30 and 7.94 and 12.67 and 62.94 and 5.39 and 6.53 and 8.236 and 4.17 and 6.07 and 5.20 and 6.82 and 10.22 and 6.95 and 32.80 | Bioavailability, individual participants ([2]; Spray 40 IU): 6.85 and 11.96 and 5.38 and 16.81 and 5.32 and 6.16 and 8.93 and 4.67 and 8.4323 and 12.50 and 14.77 and 6.29 and 7.56 and 11.34 and 5.36 and 37.05 | Crossing of the blood-brain barrier [3]: unable to cross the blood-brain barrier (BBB) in significant amounts | Synthetic OT levels in the CSF [4]: increased synthetic OT levels in the CSF
